Data published in paper PMC7587528.
Entries after “also recorded” stand apart in the source; their conditions may differ. Where two headings read alike, the source gives them in different places.

Legend:
[1] = test system: antiTroponin I antibody [MF4]; assay: ITEM-TWO nanoESI-MS collision induced dissociation: Troponin I peptide-antiTroponin I antibody complex (gas phase); format: binding
From the text: At last, we performed ITEM-TWO experiments with an epitope peptide that was derived from human cardiac Troponin I (Tn I) against which was directed a monoclonal antiTroponin I antibody (antiTn I). Generation of the immune complex in solution and subsequent electrospraying of the entire mixture started data acquisition with the respective instrument settings as mentioned (for details see Methods section). […] Again, upon raising the collision cell voltage difference there appeared isotopically resolved ions in the low m/z range of the mass spectrum for the Troponin I epitope peptide (see insert in Figure 7) which were recorded with high mass accuracy (7 ppm).
Again, plotting norm (educts) vs. ΔCV produced a sigmoidal shaped course which represented the dependence of educt intensity on ΔCV following Boltzmann characteristics (Supplemental Figure S7). The y-axis values on the tangent line, i.e., norm (educts) , enabled to calculate ln kmg# values. […] This Arrhenius plot again provided lnA (pre-exponential factor) as the intercept with the y-axis and − ΔGmg#/R as the slope of the line (Supplemental Figure S8). In the same manner as described above, the value for km0g# was calculated. Similarly, by applying the Eyring-Polanyi equation KD m0g# was determined.
The human cardiac Troponin I epitope peptide (ENREVGDWRKNIDAL; peptides&elephants, Hennigsdorf, Germany) was obtained as lyophilized powder. The peptide was dissolved in 200 mM ammonium acetate buffer, pH 7, to obtain a peptide concentration of 1.31 µg/µL. The antiTroponin I antibody [MF4] (product code ab38210; Abcam, Cambridge, UK) was obtained dissolved in PBS buffer, pH 7.4. […] Then 200 mM ammonium acetate buffer, pH 7, were added to reach a volume of 500 µL. The solution was centrifuged at 13,000 rpm for 10 min. The filtrate was discarded. To the retentate on the filter (ca. 30 µL) 470 µL of 200 mM ammonium acetate buffer, pH 7, were added to reach a total volume of 500 µL. The solution was centrifuged again. This centrifugation/re-filling procedure was repeated eight times. After the last spinning, the filter unit was inverted into a new vial and was centrifuged at 4500 rpm for 5 min to collect the retentate (52 µL). Protein concentration was determined to be 0.33 µg/µL using the Qubit^TM 2.0 Fluorometer (Carlsbad, CA, USA) assay. […] The immune complex-containing mixture was incubated at room temperature for at least 1 h. For each measurement, 3 µL of antibody-peptide complex-containing solution were loaded into nanoESI capillaries using a microloader pipette tip (Eppendorf, Hamburg, Germany).
The m/z axis was calibrated using 1 mg/mL sodium iodide dissolved in an isopropanol/water solution (50:50, v/v). […]

apo-myoglobin = settings: in solution, ref [23], cited from earlier work
From the text: In solution, the bi-molecular association of the heme group to apo-myoglobin is thought to follow a bimodal process. Association of heme to (partially unfolded) apo-myoglobin is fast (kA ~10^8 M^−^1·s^−^1), followed by a slower structural re-arrangement (k ~500 s^−^1) to generate natively-folded holo-myoglobin (at pH 7) in which the iron atom of the heme group is then primarily coordinated by His93 [23]. Accordingly, in-solution affinity of at least partially unfolded apo-myoglobin to the heme prosthetic group has been characterized as rather strong and the complex consisting of both compone ...

[2] = test system: holo-myoglobin (apo-myoglobin—heme complex); assay: ITEM-TWO nanoESI-MS collision induced dissociation: heme loss from holo-myoglobin (gas phase); format: binding
Method: The mass spectral data obtained from electrospraying myoglobin (the holo-myoglobin complex consists of apo-myoglobin plus heme) were collected by following the ITEM-TWO protocol (see Methods section for in-solution handling and data acquisition steps). The ESI mass spectrum of myoglobin (Figure 4) provides an ion series of multiply charged ions from which a mean charge state of 8.1+ and an average mass of 17,566.95 ± 0.46 Da is calculated for holo-myoglobin. After having electrosprayed the myoglobin solution, and upon having switched on the collision gas and having increased the collision cell voltage difference ( ΔCV ) in a step-wise manner (5–20 V/step), dissociation of holo-myoglobin complexes caused appearance of complex-released heme ions (ligands) in the low mass ranges of the mass spectra (Supplemental Table S1). […] The m/z value of the ion that appeared in the low mass range ([heme]+) was 616.21 and corresponded precisely to the calculated values for singly protonated [heme]+ (m/z 616.18), resulting in a mass accuracy of 48 ppm.
Mean charge states of holo-myoglobin ions (m+), apo-myoglobin (n+) and heme (p+) as well as apex heights (holo-myoglobin ions (h, educts), heme ions (i, product), and apo-myoglobin ions (j, product) were extracted (Supplemental Table S2) from the triplicate measurements, averaged and normalized. For each ΔCV setting one spectrum was generated (Figure 4) and analyzed semi-quantitatively by determining Gaussian fits for all molecular/supra-molecular ion species.
All the y-values from the tangent line of the steep decline that fall within the 2dx interval around ΔCV50 are used for the calculation of ln kmg# values which are then used in the Arrhenius plot (Supplemental Figure S2). […] Then, ΔGm0g# is calculated using the van´t Hoff equation (Table 1).
A stock solution was first prepared by dissolving 5.22 mg of myoglobin (lot # 60K7007, Sigma-Aldrich, Steinheim, Germany) in 1 mL of 200 mM ammonium acetate. […] The concentration of the resulting solution was determined to be 0.5 µg/µL using a QubitTM 2.0 Fluorometer (Carlsbad, California, USA). […]

holo-myoglobin = settings: gas phase, ref [19], cited from earlier work
From the text: In that investigation, heme dissociation kinetics was studied (i) by spraying solutions with pH 5 and (ii) by looking at selected charge state pairs (e.g., 8+ protonated holo-myoglobin and 7+ charged apo-myoglobin). Activation energies ranged from 73 kJ/mol to 106 ...

[3] = "neutral and resting" complex, gas phase, Arrhenius extrapolation to 298 K (ΔCV = 0)

In the case of “ENREVGDWRKNIDAL [troponin I, peptides&elephants)]”, the “km0g# apparent rate constant of dissociation” value (“km0g# apparent rate constant” for short) [1, 3] is reported as 2.2 × 10 ^12 1/s, the “∆CV50” value ([1]; collision cell voltage difference at center of Boltzmann fit of normalized educt intensity, Synapt G2S, peptide to antibody 2.2:1, 200 mM ammonium acetate pH 7, two determinations) is reported as 26.4 V and the dx ([1]; half of x-axis interval (2dx) of steepest educt decline in Boltzmann fit, Synapt G2S, two determinations) is reported as 15.9 V. The “binding stoichiometry, peptides bound per antibody” value ([1]; high mass range ion triplets, charge states 23+ to 28+, listed as Troponin I epitope peptide) was “one bound Troponin I epitope peptide; also recorded: two bound Troponin I epitope peptides”.

For DYKDDDDK [FLAG], the “km0g# apparent rate constant” value (antiFLAG M2 antibody; [3]) was 7.9 × 10 ^10 1/s, the “∆CV50” value (antiFLAG M2 antibody; collision cell voltage difference at center of Boltzmann fit of normalized educt intensity, peptide to antibody 2.2:1, 200 mM ammonium acetate pH 7, three determinations) was 89.0 V and the dx (antiFLAG M2 antibody; half of x-axis interval (2dx) of steepest educt decline in Boltzmann fit, three determinations) was 19.8 V. For the same molecule, the “binding stoichiometry, peptides bound per antibody” value (antiFLAG M2 antibody; high mass range ion triplets, charge states 21+ to 27+, mixture of seven peptides, listed as FLAG peptide) was “one bound FLAG peptide; also recorded: two bound FLAG peptides” and the “peptide released from antiFLAG antibody complex (epitope identification)” value (antiFLAG M2 antibody; mixture of seven peptides with antiFLAG antibody, 200 mM ammonium acetate pH 7, raised collision cell voltage) was “only released the FLAG peptide”.

For `C=CC1=C(C)c2cc3[n-]c(cc4[n-]c(cc5nc(cc1n2)C(C)=C5C=C)c(C)c4CCC(=O)O)c(CCC(=O)O)c3C.[Fe+2]` [heme], the “k of slower structural re-arrangement to natively-folded holo-myoglobin” value (apo-myoglobin; pH 7) is given as ~ 500 s^−^1 and the “kA association of heme to (partially unfolded) apo-myoglobin” value (apo-myoglobin) is given as ~ 10^8 M^−^1·s^−^1.

B1: myoglobin: holo-myoglobin complex consists of apo-myoglobin plus heme; lot # 60K7007, Sigma-Aldrich (protein, UniProt P68082 2-154, looked up)
Myoglobin: GLSDGEWQQVLNVWGKVEADIAGHGQEVLIRLFTGHPETLEKFDKFKHLKTEAEMKASEDLKKHGTVVLTALGGILKKKGHHEAELKPLAQSHATKHKIPIKYLEFISDAIIHVLHSKHPGDFGADAQGAMTKALELFRNDIAAKYKELGFQG
modifications: heme
notes: holo-myoglobin complex consists of apo-myoglobin plus heme; lot # 60K7007, Sigma-Aldrich
In the case of B1, the “km0g# apparent rate constant” value [2, 3] is reported as 5.1 × 10 ^9 1/s, the “∆CV50” value ([2]; collision cell voltage difference at center of Boltzmann fit of normalized educt intensity, Q-TOF 2, 200 mM ammonium acetate pH 7, triplicate) is reported as 44.0 V and the dx ([2]; half of x-axis interval (2dx) of steepest educt decline in Boltzmann fit, Q-TOF 2, triplicate) is reported as 8.5 V. For the same molecule, the “activation energy for heme dissociation” value (holo-myoglobin; 9+ protonated holo-myoglobin) was 22 kcal/mol and the “activation energy for heme dissociation” value (holo-myoglobin; 10+ protonated holo-myoglobin) was 20.3 kcal/mol.
